Source: US11697669B2, “Hemi-citrate salts of GABA-A positive allosteric modulator and crystalline form thereof” (priority 2021, dated 2023)
Where a name gives a salt, the structure may show the parent alone. Read-outs that look alike come from different tables or passages of the source.

Key:
Format in all cases: physicochemical
[1] = Gelation experiments in aqueous media; conditions: for gelation during tablet dissolution experiments: certain conditions
Protocol: To confirm these findings, controlled experiments were conducted where the free base, mono-citrate, and hemi-citrate salts of Compound 1 were dissolved in aqueous media at concentrations between 0.5 mg/mL and 10 mg/mL. The dissolution experiments were performed in either 0.1 N HCl, water, or pH 7.4 buffer as aqueous media.

[2] = Heckel analysis on compaction simulator (yield pressure, strain rate sensitivity, crushing strength); conditions: for yield pressure, fast press speed: punch speed 300 mm/s; for yield pressure, slow speed: punch speed 0.1 mm/s
Protocol: The aim of the Heckel test is to compress the material under controlled conditions to derive the yield pressure of the bulk material. A known weight of material is compressed within a 10 mm diameter die with flat faced punches moving at a set speed. The force on the punch is accurately measured at frequent intervals whilst the displacement of the punches is used to calculate the volume of the powder. The yield pressure is calculated at slow and fast punch speeds to assess the time-dependent component to deformation of the material.
A known weight of pure drug is compacted to theoretical zero porosity using 10 mm diameter flat faced punches. The Compaction Simulator was used under the following conditions:
During compression the location of the punch tips are accurately determined, and the force measured by load cells producing a record of the primary compression parameters. Temperature and humidity were monitored at intervals during the test.
The data were analyzed by the Compaction Analysis software program to generate values for yield pressure (Py) using the Heckel equation:
[formula] where D=the relative density of the compact; • P=Pressure applied; and • K=Gradient of the line in the linear region; [Reference: R. W. Heckel. Trans. Metall. Soc. AIME 221 (1961)1001-1008].
For some materials, the deformation characteristics change with rate of applied force. This can be estimated by calculating the Strain Rate Sensitivity. The yield pressure at high speed compression is compared to that at slow speed using the following equation:
[formula] [Reference: R. J. Roberts and R. C. Roe, Chem. Eng. Sci. 42(1987) p 903]. Results

[3] = Dynamic vapor sorption (DVS) at room temperature and 40° C.
Protocol: DVS was measured via a SMS (Surface Measurement System) DVS Intrinsic. Parameters for DVS data collection were as follows:
A second endotherm (having an onset at 121.5° C.) associated with melting of the dehydrated phase (ΔH: 15.20 J/g) was followed by a rapid decomposition as temperature continued to increase (FIG. 3). Because of the low onset of dehydration, the DVS was measured at both room temperature and at 40° C. to predict the stability of the crystalline phase at 40° C. […] A 1.5% weight loss was observed between 95% and 20% RH, and a 2.9% weight loss was observed between 20% and 0% RH, for a total loss of […] across the entire cycle. […] After measuring the hygroscopicity by DVS, an XRPD pattern was collected for comparison to the original material and found to correspond well to the pattern of the room temperature sample post-DVS temperature cycle (FIG. 6).

[4] = Tablet dissolution: percent release of Compound 1 from acidified tablet formulation
Protocol: FIG. 13 is a graph showing percent release of Compound 1 over time for an acidified tablet formulation containing Compound 1 hemi-citrate salt Form I. Tablets were used initially or maintained at 40° C./75% RH for 2 weeks, 1 month, or 2 months.
FIG. 14 is a graph showing percent release of Compound 1 over time for an acidified tablet formulation containing Compound 1 mono-citrate salt (Form A). Tablets were used initially or stored at 40° C./75% RH for 2 weeks, 1 month, or 2 months.

[5] = Tablet stability: C17 epimer in sealed bottles stored at 40° C./75% RH; conditions: tablet dosage form, sealed bottle, 1 or 2 months, versus mono-citrate salt
Protocol: FIG. 12 is a graph comparing the amount of the C17 epimer, a degradation product of Compound 1, over time for a tablet formulation containing Compound 1 hemi-citrate salt (Form I; left column in both “1 month” and “2 months”) or Compound 1 mono-citrate salt (Form A; right column in both “1 month” and “2 months”) in sealed bottles stored at 40° C./75% RH).

[6] = fast speed 300 mm/s, single runs, 21.7° C./38.9% RH

For `COC[C@@]1(O)CC[C@@]2(C)[C@@H](CC[C@@H]3[C@@H]2CC[C@]2(C)[C@@H](C(=O)Cn4ccnc4)CC[C@@H]32)C1.O=C(O)CC(O)(CC(=O)O)C(=O)O` [Compound 1 mono-citrate salt, 3α-Hydroxy-3β-methoxymethyl-21-(1′-imidazolyl)-5α-pregnan-20-one, reference compound], the gelation ([1]; 0.1 N HCl, 5 mg/mL) was “rapidly gelled”, the “gelation during tablet dissolution experiments” value [1] was “significant gelation” and the gelation ([1]; water or pH 7.4 buffer) was “did not gel”. The “classification of compaction properties” value ([2]; from slow speed yield pressure) was “moderately brittle/ductile compaction properties” and the “yield pressure, fast press speed” value [2] was 109 MPa.
In the case of `COC[C@@]1(O)CC[C@@]2(C)[C@@H](CC[C@@H]3[C@@H]2CC[C@]2(C)[C@@H](C(=O)Cn4ccnc4)CC[C@@H]32)C1.O=C(O)CC(O)(CC(=O)O)C(=O)O` [Compound 1 mono-citrate salt Form A], the Compact observations [2, 6] is reported as “Laminated”, the “Ejection Force” value [2, 6] is reported as 0.740 kN and the “yield pressure, slow speed” value [2] is reported as 84 MPa. For the same compound, the Compact observations ([2]; slow speed 0.1 mm/s, single runs, 21.6° C./37.1% RH) was “Ok”.
For `COC[C@@]1(O)CC[C@@]2(C)[C@@H](CC[C@@H]3[C@@H]2CC[C@]2(C)[C@@H](C(=O)Cn4ccnc4)CC[C@@H]32)C1` [Compound 1 hemi-citrate salt Form I, 3α-Hydroxy-3β-methoxymethyl-21-(1′-imidazolyl)-5α-pregnan-20-one], the “Strain rate sensitivity (SRS)” value ([2]; fast versus slow speed yield pressure) was 21.4%, the “yield pressure, slow speed” value [2] was 69 MPa and the hygroscopicity [3] was “slightly hygroscopic”. The “reversibility of water loss” value ([3]; 40° C.) was “fully reversible”, the total loss ([3]; 40° C.) was 5.4% and the “water absorption from 20% to 80% RH” value ([3]; 40° C.) was 1.8%. For the same compound, the “water lost between 95% and 20% RH” value ([3]; 40° C.) was 2.2%, the “water lost from 20% to 0% RH” value ([3]; 40° C.) was 3.2% and the “reversibility of water loss” value ([3]; room temperature) was “fully reversible”. The “total loss across the entire cycle” value ([3]; room temperature) was 4.3%, the “water uptake between 20% and 80% RH” value ([3]; room temperature) was 1.2% and the “weight loss between 20% and 0% RH” value ([3]; room temperature) was 2.9%. For the same compound, the “weight loss between 95% and 20% RH” value ([3]; room temperature) was 1.5%.
With `COC[C@@]1(O)CC[C@@]2(C)[C@@H](CC[C@@H]3[C@@H]2CC[C@]2(C)[C@@H](C(=O)Cn4ccnc4)CC[C@@H]32)C1` [Compound 1, 3α-Hydroxy-3β-methoxymethyl-21-(1′-imidazolyl)-5α-pregnan-20-one] the gelation ([1]; 0.1 N HCl, concentrations as low as 1 mg/mL) was “rapidly gelled” and the gelation ([1]; water or pH 7.4 buffer) was “did not gel”.
For `COC[C@@]1(O)CC[C@@]2(C)[C@@H](CC[C@@H]3[C@@H]2CC[C@]2(C)[C@@H](C(=O)Cn4ccnc4)CC[C@@H]32)C1` [Compound 1 hemi-citrate salt, 3α-Hydroxy-3β-methoxymethyl-21-(1′-imidazolyl)-5α-pregnan-20-one], the “release of Compound 1 over time” value ([4]; acidified formulation, initial and open dish at 40° C./75% RH for 2 weeks, 1 month or 2 months) was “greater than the release of Compound 1 from the same acidified formulation of the Compound 1 mono-citrate salt”, the “susceptibility to dissolution slow-down of the tablet” value ([4]; tablet, versus mono-citrate salt) was “less susceptible than the Compound 1 mono-citrate salt to dissolution slow-down” and the gelation ([1]; any of the aqueous media (0.1 N HCl, water, pH 7.4 buffer), concentrations up to 10 mg/mL) was “did not gel”. For the same compound, the “gelation during tablet dissolution experiments” value [1] was “not prone to gelation”, the “classification of compaction properties” value [2] was “soft ductile compaction properties” and the “yield pressure, fast press speed” value [2] was 84 MPa. The “degradation product (C17-epimer) generated” value [5] was “less degradation product”.
